Like-named read-outs stand apart in the source and are kept apart here.
Key:
human recombinant CB2 = molecular target: T1, human recombinant CB2 (Homo sapiens, UniProt P34972); test: CB2R radioligand binding on membranes from HEK293 cells over-expressing CB2
T1 construct: purchased Perkin-Elmer; host or cells: HEK293
Method: (§1) Terpenoid compounds of formula (I), (II) or (III) above were evaluated for their ability to activate Cannabinoid Receptor 1 (CB1R) and Cannabinoid Receptor 2 (CB2R). Their ClogP values were also measured.
CB2R experiments were performed using membranes from HEK293 cells over-expressing human recombinant CB2, as described by the manufacturer (Perkin-Elmer), and using [3H]CP-55,495 as the radioligand.
(§2) Data of active compounds are expressed in Ki (mM) and are means ±SEM of n=3 determinations.
(§3) The values that are stated for each of the compounds is an EC50 value. This is defined as the molar concentration of an agonist, which produces 50% of the maximum possible response for that agonist. The values documented are in micromolar units.

human recombinant CB1 = molecular target: T2, human recombinant CB1 (Homo sapiens, UniProt P21554); test: CB1R radioligand binding on membranes from HEK293 cells over-expressing CB1
T2 construct: purchased Perkin-Elmer; host or cells: HEK293
Method: as §1
CB1R experiments were performed using membranes from HEK293 cells over-expressing human recombinant CB1, as described by the manufacturer (Perkin-Elmer) and using [3H]CP-55,490 as the radioligand.
as §2, §3

[1] = HEK293 membranes, [3H]CP-55,495 radioligand, means of n=3, dash = greater than 25 micromolar, read-out: CB2R Activity
[2] = HEK293 membranes, [3H]CP-55,490 radioligand, means of n=3, read-out: CB1R Activity

T1 sequence (P34972 whole entry): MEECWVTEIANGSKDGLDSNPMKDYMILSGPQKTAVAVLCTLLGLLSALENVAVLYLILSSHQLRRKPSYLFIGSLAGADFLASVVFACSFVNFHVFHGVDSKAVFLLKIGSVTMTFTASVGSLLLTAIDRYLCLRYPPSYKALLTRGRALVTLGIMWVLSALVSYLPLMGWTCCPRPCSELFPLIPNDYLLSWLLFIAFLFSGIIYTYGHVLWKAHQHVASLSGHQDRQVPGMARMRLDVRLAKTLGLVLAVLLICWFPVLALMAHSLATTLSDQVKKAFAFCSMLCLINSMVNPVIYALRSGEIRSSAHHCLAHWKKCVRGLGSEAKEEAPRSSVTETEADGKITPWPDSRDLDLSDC
T2 sequence (P21554 whole entry): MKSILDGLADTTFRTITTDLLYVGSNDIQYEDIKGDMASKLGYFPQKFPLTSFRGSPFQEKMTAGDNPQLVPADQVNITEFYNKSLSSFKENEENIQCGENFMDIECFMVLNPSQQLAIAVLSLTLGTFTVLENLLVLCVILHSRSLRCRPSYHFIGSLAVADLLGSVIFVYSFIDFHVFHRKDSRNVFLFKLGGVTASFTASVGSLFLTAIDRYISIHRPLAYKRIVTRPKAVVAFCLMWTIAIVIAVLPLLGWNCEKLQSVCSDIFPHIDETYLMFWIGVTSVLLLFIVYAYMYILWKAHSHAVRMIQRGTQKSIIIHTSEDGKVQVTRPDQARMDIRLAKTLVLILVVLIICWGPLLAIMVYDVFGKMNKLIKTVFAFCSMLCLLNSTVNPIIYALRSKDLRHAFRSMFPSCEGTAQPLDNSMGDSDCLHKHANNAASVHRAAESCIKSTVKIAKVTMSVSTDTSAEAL

Molecule	EC50 (human recombinant CB2; [1])	EC50 (human recombinant CB1; [2])	EC50 (human recombinant CB2)	EC50 (human recombinant CB1)	activation of Cannabinoid Receptor 2 (CB2R), in words (human recombinant CB2)	activation of Cannabinoid Receptor 1 (CB1R), in words (human recombinant CB1)
C=C(C)C1Cc2c(cc(O)c3c2OC2C(O)Oc4cc(OC)c(OC)cc4C2C3=O)O1 (centres unmarked) [Example 1, 6-hydroxysumatrol]	> 25 µM	17.1 µM	–	–	–	–
COc1cc(C2Oc3ccc(C4CC(=O)c5c(O)cc(O)cc5O4)cc3OC2CO)ccc1O (centres unmarked) [Example 3, silandrin]	–	–	> 25 µM	22 µM	–	–
isophaseollin [Example 2]	22.3 µM	15.5 µM	–	–	can activate	can activate
